In one test the test system is M. tuberculosis M6600. To be noted: clinical multidrug-resistant isolate; for MIC M. tuberculosis M6600: Alamar blue, 7H9 broth, triplicate wells. Background: Alamar Blue is a resazurin reagent that responds to reducing activity.
Another test concerns M. tuberculosis M3551. To be noted: clinical multidrug-resistant isolate; for MIC M. tuberculosis M3551: Alamar blue, 7H9 broth, triplicate wells.
The next test has as its system M. tuberculosis M9483. To be noted: clinical multidrug-resistant isolate; for MIC M. tuberculosis M9483: Alamar blue, 7H9 broth, triplicate wells.

Converted amounts (≈) assume the structure as drawn.

In the case of `CSCC[C@H](NC(=O)N[C@@H](Cc1c[nH]c2ccccc12)C(=O)O)C(=O)N[C@H](C(=O)N/C=C1/C[C@@H](O)[C@H](n2ccc(=O)[nH]c2=O)O1)[C@H](C)N(C)C(=O)[C@@H](N)Cc1cccc(O)c1` [SS-A, sansanmycin A], the “MIC M. tuberculosis M6600” value in the test on M. tuberculosis M6600 was 16 µg/mL (≈ 18.5 µM). Moreover, in the test on M. tuberculosis M3551, the “MIC M. tuberculosis M3551” value was determined as 16 µg/mL (≈ 18.5 µM). Further, in the test on M. tuberculosis M9483, the “MIC M. tuberculosis M9483” value was determined as 16 µg/mL (≈ 18.5 µM).

As for `CC(=O)NC[C@H]1CN(c2ccc(N3CCOCC3)c(F)c2)C(=O)O1` [LZD, linezolid], the “M. tuberculosis M6600, resistant/sensitive class of control drugs” value in the test with M. tuberculosis M6600 is reported as “S (sensitive to LZD, at 2.0 μg/mL)”. Further, the “M. tuberculosis M3551, resistant/sensitive class of control drugs” value with M. tuberculosis M3551 was “S (sensitive to LZD, at 2.0 μg/mL)”. The “M. tuberculosis M9483, resistant/sensitive class of control drugs” value in the test with M. tuberculosis M9483 is on record as “S (sensitive to LZD, at 2.0 μg/mL)”.

With `CSCC[C@H](NC(=O)N[C@@H](Cc1c[nH]c2ccccc12)C(=O)O)C(=O)N[C@H](C(=O)NC[C@H]1O[C@@H](n2ccc(=O)[nH]c2=O)C[C@@H]1O)[C@H](C)N(C)C(=O)[C@@H](N)Cc1cccc(O)c1` [SS-KK-1], in the test on M. tuberculosis M6600, the “MIC M. tuberculosis M6600” value is above 64 µg/mL. The “MIC M. tuberculosis M3551” value against M. tuberculosis M3551 was above 64 µg/mL. Besides, in the test with M. tuberculosis M9483, the “MIC M. tuberculosis M9483” value is above 64 µg/mL.

As for `NNC(=O)c1ccncc1` [INH, isoniazid], the “M. tuberculosis M6600, resistant/sensitive class of control drugs” value in the test on M. tuberculosis M6600 is recorded as “R”. For the same molecule, the “M. tuberculosis M3551, resistant/sensitive class of control drugs” value with M. tuberculosis M3551 is recorded as “R”. Besides, in the test with M. tuberculosis M9483, the “M. tuberculosis M9483, resistant/sensitive class of control drugs” value was “R”.

On to `CO[C@H]1/C=C/O[C@@]2(C)Oc3c(C)c(O)c4c(O)c(c(/C=N/N5CCN(C)CC5)c(O)c4c3C2=O)NC(=O)/C(C)=C\C=C\[C@H](C)[C@H](O)[C@@H](C)[C@@H](O)[C@@H](C)[C@H](OC(C)=O)[C@@H]1C` [RIF, rifampicin], for which the “M. tuberculosis M6600, resistant/sensitive class of control drugs” value in the test on M. tuberculosis M6600 was “R”. The “M. tuberculosis M3551, resistant/sensitive class of control drugs” value in the test on M. tuberculosis M3551 is listed as “R”. Further, in the test with M. tuberculosis M9483, the “M. tuberculosis M9483, resistant/sensitive class of control drugs” value is on record as “R”.

On to `CSCC[C@H](NC(=O)N[C@@H](Cc1c[nH]c2ccccc12)C(=O)O)C(=O)N[C@H](C(=O)NC[C@H]1O[C@@H](n2ccc(=O)[nH]c2=O)C[C@@H]1O)[C@H](C)N(C)C(=O)[C@@H](N)Cc1ccc(O)cc1` [SS-KK-2], for which the “MIC M. tuberculosis M6600” value in the test on M. tuberculosis M6600 turned out to be 64 µg/mL (≈ 73.9 µM). Further, the “MIC M. tuberculosis M3551” value against M. tuberculosis M3551 came to 64 µg/mL (≈ 73.9 µM). In the test with M. tuberculosis M9483, the “MIC M. tuberculosis M9483” value stood at 32 µg/mL (≈ 37 µM).

Values taken from publication PMC10643210, “Expanding structural diversity of 5′-aminouridine moiety of sansanmycin via mutational biosynthesis” (Frontiers in Bioengineering and Biotechnology, 2023).
